Results as given in article PMC8041284, “Tunable Methacrylamides for Covalent Ligand Directed Release Chemistry” (Journal of the American Chemical Society, 2021).
Read-outs that look alike come from different tables or passages of the source.

Molecular target: BTK (Homo sapiens, UniProt Q06187)
Test: biochemical
[1] = read-out: BTK inhibition (%), 0.75 uM BTK, […] probe 3l, 15 min preincubation

Chain of BTK (Q06187 402-655 limits assumed): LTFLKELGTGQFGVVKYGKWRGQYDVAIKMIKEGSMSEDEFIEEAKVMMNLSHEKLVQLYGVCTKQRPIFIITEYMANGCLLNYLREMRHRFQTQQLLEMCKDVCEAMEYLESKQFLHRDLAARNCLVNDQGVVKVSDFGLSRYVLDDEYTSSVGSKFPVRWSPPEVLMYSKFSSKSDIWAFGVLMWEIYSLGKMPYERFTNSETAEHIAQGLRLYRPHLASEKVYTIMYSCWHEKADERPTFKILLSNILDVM

COc1ccc(C[C@@H]2c3cc(OC)c(OC)cc3CC[N@+]2(C)CCC(=O)OCCCCCOC(=O)CC[N@@+]2(C)CCc3cc(OC)c(OC)cc3[C@H]2Cc2ccc(OC)c(OC)c2)cc1OC [PCM-0095290]
inhibition at 10 µM [1]: -8.6%

CC(=O)N[C@H]1[C@H]([C@H](O)[C@H](O)CO)OC(C(=O)O)=C[C@@H]1N=C(N)N [PCM-0095451]
inhibition at 10 µM [1]: -4.3%

C=C(C)[C@@H]1CC[C@@]2(C)CCC(=O)C(C)=C2C1 [PCM-0216488]
inhibition at 10 µM [1]: -11.6%

C=CC(=O)Nc1cc2c(Nc3ccc(F)c(Cl)c3)ncnc2cc1OCCCN1CCOCC1 [PCM-0094917]
inhibition at 10 µM [1]: 93.6%

O=C(O)c1ccc(CN2CCC(CN[C@@H]3C[C@H]3c3ccccc3)CC2)cc1 [PCM-0215597]
inhibition at 10 µM [1]: 0.8%

Cn1sc(=O)n(Cc2ccccc2)c1=O [PCM-0095428]
inhibition at 10 µM [1]: 4.8%

COc1cc(F)c(F)c(Nc2ccc(I)cc2F)c1NS(=O)(=O)C1(C[C@H](O)CO)CC1 [PCM-0214795]
inhibition at 10 µM [1]: 36.6%

O=C(O)CNC(=O)c1nc(Cl)c2ccccc2c1O [PCM-0215583]
inhibition at 10 µM [1]: 10.8%

CCCC(=O)O[C@]1(C(=O)COC(C)=O)CC[C@H]2[C@@H]3C[C@H](F)C4=CC(=O)C=C[C@]4(C)[C@@]3(F)[C@@H](O)C[C@@]21C [PCM-0214767]
inhibition at 10 µM [1]: -3.4%

CC(C)OC(=O)C(C(=O)OC(C)C)=C1SC=CS1 [PCM-0094945]
inhibition at 10 µM [1]: 3.9%

Cc1[nH]nc2ncc(C(=O)N3CCC[C@H]3c3ccc(Cl)cc3)cc12 [PCM-0215837]
inhibition at 10 µM [1]: 6.2%

COc1ccccc1OCCN [PCM-0216626]
inhibition at 10 µM [1]: -11.6%

O=C(Oc1cccc(F)c1OC(=O)c1cccc(O)c1)c1cccc(O)c1 [PCM-0215618]
inhibition at 10 µM [1]: -5.4%

CC[C@H]1OC(=O)[C@H](C)[C@@H](O[C@H]2C[C@@](C)(OC)[C@@H](O)[C@H](C)O2)[C@H](C)[C@@H](O[C@@H]2O[C@H](C)C[C@H](N(C)C)[C@H]2O)[C@](C)(O)C[C@@H](C)C(=O)[C@H](C)[C@H]2OC(=O)O[C@@]21C [PCM-0215364]
inhibition at 10 µM [1]: -20.8%

C=CC[C@]1(O)CC[C@H]2[C@@H]3CCC4=CC(=O)CCC4=C3C=C[C@@]21C [PCM-0095614]
inhibition at 10 µM [1]: -4.7%

O=C(NC1(c2ccccc2)CC1)c1c(CN2CCC(N3CCCCC3)CC2)c(-c2cccc(C(F)(F)F)c2)nc2cc(Br)ccc12 [PCM-0215818]
inhibition at 10 µM [1]: 36.3%

CCCCCCCCCCCCCCCc1cccc(O)c1C(=O)O [PCM-0215370]
inhibition at 10 µM [1]: -19.3%

Cc1c(Cc2ccc3ccccc3n2)c2cc(F)ccc2n1CC(=O)O [PCM-0214780]
inhibition at 10 µM [1]: 8.6%

COc1ccc2cc(CCC(C)=O)ccc2c1 [PCM-0086446]
inhibition at 10 µM [1]: 7.6%

CN1CCC(=C2c3ccccc3CCc3cccnc32)CC1 [PCM-0090351]
inhibition at 10 µM [1]: -2.8%

O=C(O)CNC(=O)C1C(=O)N(C2CCCCC2)C(=O)N(C2CCCCC2)C1=O [PCM-0215600]
inhibition at 10 µM (read-out: BTK inhibition (%)): 13.9%

Cc1cc(Nc2ncnc3ccc(-c4ccc(CNCCS(C)(=O)=O)o4)cc23)ccc1Oc1ccn2ncnc2c1 [PCM-0095494]
inhibition at 10 µM [1]: -21.4%

O=c1cc(-c2ccc(O[C@@H]3O[C@H](CO)[C@@H](O)[C@H](O)[C@H]3O)cc2)oc2c([C@@H]3O[C@H](CO)[C@@H](O)[C@H](O)[C@H]3O)c(O)cc(O)c12 [PCM-0216358]
inhibition at 10 µM [1]: -3.9%

CC(=O)[C@H]1CC[C@H]2[C@@H]3CC=C4C[C@@H](O)CC[C@]4(C)[C@H]3CC[C@]12C [PCM-0086127]
inhibition at 10 µM [1]: -22.6%

Cc1[nH]c(/C=C2\C(=O)Nc3ccc(S(=O)(=O)Cc4c(Cl)cccc4Cl)cc32)c(C)c1C(=O)N1CCC[C@@H]1CN1CCCC1 [PCM-0095018]
inhibition at 10 µM [1]: 35.2%

CCCCCCCCCC(=O)OCC(COC(=O)CCCCCCCCC)OC(=O)CCCCCCCCC [PCM-0216614]
inhibition at 10 µM [1]: 11.6%

Cc1ncc(CCCN(C)C)cc1Nc1ncc2c(n1)-c1ccc(C(F)(F)F)cc1NC(=S)C2 [PCM-0214732]
inhibition at 10 µM [1]: 24.1%

C=C1CC[C@@H]2[C@](C)(CO)[C@H](O)CC[C@@]2(C)[C@H]1C/C=C1\C=COC1=O [PCM-0215003]
inhibition at 10 µM [1]: 14%

CNCc1ccc(-c2[nH]c3cc(F)cc4c3c2CCNC4=O)cc1 [PCM-0095075]
inhibition at 10 µM [1]: 18.6%

CC(C)(C)c1cc(C(C)(C)C)c(NC(=O)c2c[nH]c3ccccc3c2=O)cc1O [PCM-0094963]
inhibition at 10 µM [1]: 49.8%

COC(=O)CC1CC(c2ccc(O)cc2)=NO1 (centres unmarked) [PCM-0216118]
inhibition at 10 µM [1]: -16.6%

Cc1noc(C)c1-c1ccc(-c2cc(C(N)=O)c(NC(N)=O)s2)c(O[C@H]2CCNC2)c1 [PCM-0215541]
inhibition at 10 µM [1]: 74.1%

CCCCCCCCCCCCCCCCn1cc[n+](Cc2ccccc2)c1C [PCM-0095755]
inhibition at 10 µM [1]: -51.7%

COC(=O)c1ccc(O)c(O)c1 [PCM-0215036]
inhibition at 10 µM [1]: -15.6%

COc1ccc(/C=C/C(=O)c2c(O)cc(OC)cc2OC)cc1 [PCM-0216582]
inhibition at 10 µM [1]: 11.6%

O=C(c1ccc(F)cc1)N1CCC[C@H](c2nc(-c3ccc(F)cc3)no2)C1 [PCM-0095385]
inhibition at 10 µM [1]: -13.2%

Cc1nc2ccc(-n3ncc(C(=O)c4cc5ccccc5[nH]4)c3N)cc2[nH]1 [PCM-0215439]
inhibition at 10 µM [1]: 44.8%

O=C(Nc1cc(Cl)cc(Cl)c1O)c1c(O)c(Cl)cc(Cl)c1Cl [PCM-0215152]
inhibition at 10 µM [1]: 18.5%

N#Cc1c(O)c2c(-c3ccc(-c4ccccc4O)cc3)csc2[nH]c1=O [PCM-0095407]
inhibition at 10 µM [1]: 51.7%

NC(N)=NCCCC[C@H](N)C(=O)O [PCM-0216161]
inhibition at 10 µM [1]: -8.5%

C[C@H]1[C@H](NC(=O)/C(=N\OC(C)(C)C(=O)O)c2csc(N)n2)C(=O)N1S(=O)(=O)O [PCM-0085816]
inhibition at 10 µM [1]: -15.6%

CC(=O)c1cc(O)ccc1O [PCM-0216293]
inhibition at 10 µM [1]: -1.5%

CC(C)C(C(=O)O)N1C(=O)/C(=C\c2ccc(Br)cc2)SC1=S (centres unmarked) [PCM-0215783]
inhibition at 10 µM [1]: -3.1%

CN(C)c1ccc(C(=O)NCCCCCCC(=O)NO)cc1 [PCM-0095347]
inhibition at 10 µM [1]: 4.7%

Nc1ncnc2c1ncn2[C@H]1C[C@H](O)[C@@H](CO)O1 [PCM-0101923]
inhibition at 10 µM [1]: 15.4%

CC(C)(Sc1ccncc1-c1ccc(C#N)c2ccccc12)C(=O)O [PCM-0216646]
inhibition at 10 µM [1]: -27.8%

CC1=C[C@H](O)CC(C)(C)[C@H]1/C=C/C(C)=C/C=C/C(C)=C/C=C/C=C(C)/C=C/C=C(C)/C=C/C1=C(C)C[C@@H](O)CC1(C)C [PCM-0215916]
inhibition at 10 µM [1]: 0.8%

CCS(=O)(=O)CCn1c([N+](=O)[O-])cnc1C [PCM-0086486]
inhibition at 10 µM [1]: -4.7%

CC1(C)O[C@@H]2C[C@H]3[C@@H]4CCC5=CC(=O)C=C[C@]5(C)[C@H]4[C@@H](O)C[C@]3(C)[C@]2(C(=O)CO)O1 [PCM-0214648]
inhibition at 10 µM [1]: 4.8%

C=CCc1cc(OC)c(OC)c(OC)c1 [PCM-0215912]
inhibition at 10 µM [1]: 3.1%

COc1cc2c(N3CCN(C(=O)Nc4ccc(OC(C)C)cc4)CC3)ncnc2cc1OCCCN1CCCCC1 [PCM-0090254]
inhibition at 10 µM [1]: -17%

NS(=O)(=O)c1cc2c(cc1Cl)NC(C(Cl)Cl)NS2(=O)=O (centres unmarked) [PCM-0086441]
inhibition at 10 µM [1]: -14%

c1ccc2c(c1)[I+]c1ccccc1-2 [PCM-0215888]
inhibition at 10 µM [1]: -0.7%

CSc1cccc(Nc2ncc3cc(-c4c(Cl)cccc4Cl)c(=O)n(C)c3n2)c1 [PCM-0215338]
inhibition at 10 µM [1]: -18.6%

C=CCc1cccc(/C=N/NC(=O)CN2CCN(Cc3ccccc3)CC2)c1O [PCM-0064890]
inhibition at 10 µM [1]: 9%

N#Cc1cccc(-c2c[nH]c3ncnc(N4CCOCC4)c23)c1 [PCM-0215613]
inhibition at 10 µM [1]: -8.3%

CC(=O)OCC1=C[C@@H]2OC(=O)C3=CO[C@@H](O[C@@H]4O[C@H](CO)[C@@H](O)[C@H](O)[C@H]4O)[C@H]1[C@@H]32 [PCM-0216352]
inhibition at 10 µM [1]: 10.8%

CCCCCCCCCCCCCCCC(=O)OC [PCM-0216632]
inhibition at 10 µM [1]: 25.5%

CC(C)(C)OC(=O)Nc1ccc(-c2cc(C(=O)NCCCCCCC(=O)NO)no2)cc1 [PCM-0215407]
inhibition at 10 µM [1]: 20.1%

O=S(=O)(c1ccccc1)N(CC(F)(F)F)c1ccc(C(O)(C(F)(F)F)C(F)(F)F)cc1 [PCM-0095817]
inhibition at 10 µM [1]: 27%

COC1=C[C@@]23CCN(C)[C@@H](Cc4ccc(OC)c(O)c42)C3=CC1=O [PCM-0216320]
inhibition at 10 µM (read-out: BTK inhibition (%)): 3.1%

Ac-PHSCN-NH2 [PCM-0215851]
inhibition at 10 µM [1]: -5.1%

O=C1CCC[C@@H]2[C@H]3CCCN4CCC[C@H](CN12)[C@@H]34 [PCM-0215044]
inhibition at 10 µM [1]: -16.3%

CC(C)(CCCCCC(O)CCCCCC(C)(C)C(=O)O)C(=O)O [PCM-0215634]
inhibition at 10 µM [1]: 0.7%

C/C(O)=C(\C#N)C(=O)Nc1cc(Br)ccc1Br [PCM-0215429]
inhibition at 10 µM [1]: -1.4%

CN(C)C(=O)c1cc2cnc(Nc3ccc(N4CCNCC4)cn3)nc2n1C1CCCC1 [PCM-0215283]
inhibition at 10 µM [1]: -7.7%

CN[C@H](CC(=O)O)C(=O)O [PCM-0065539]
inhibition at 10 µM [1]: -10%

CC(=O)Nc1nc(C)c(-c2ccc(Cl)c(S(=O)(=O)NCCO)c2)s1 [PCM-0095173]
inhibition at 10 µM [1]: -10.3%

Nc1ccn([C@@H]2O[C@H](COP(=O)(O)O)[C@@H](O)[C@H]2O)c(=O)n1 [PCM-0216146]
inhibition at 10 µM [1]: -0.9%

O=c1cc[nH]c(=S)[nH]1 [PCM-0090803]
inhibition at 10 µM [1]: 8.6%

Cc1coc2c1C(=O)C(=O)c1c-2ccc2c(C)cccc12 [PCM-0094815]
inhibition at 10 µM [1]: -3.9%

NC(=O)NCCC[C@H](N)C(=O)O [PCM-0215941]
inhibition at 10 µM [1]: -17.9%

O=C(Nc1nccs1)C(c1cc(F)ccc1O)N1Cc2ccccc2C1=O (centres unmarked) [PCM-0215692]
inhibition at 10 µM [1]: 13.8%

O=C(O)CCc1c[nH]c2ccccc12 [PCM-0215055]
inhibition at 10 µM [1]: -34.2%

O=C(O)CCC(=O)Nc1ccc(Br)cn1 [PCM-0215427]
inhibition at 10 µM [1]: -3.4%

O=C(CO)[C@@H](O)[C@H](O)[C@@H](O)CO [PCM-0216101]
inhibition at 10 µM [1]: -4.3%

CCN1CCN(Cc2ccc(Nc3ncc(F)c(-c4cc(F)c5nc(C)n(C(C)C)c5c4)n3)nc2)CC1 [PCM-0095736]
inhibition at 10 µM [1]: -12.4%

CCOC(=O)c1ccc(O)c(OC)c1 [PCM-0215087]
inhibition at 10 µM [1]: -7.8%

O=C(N/N=C/c1cc(O)c(O)cc1O)c1cc2ccccc2cc1O [PCM-0215496]
inhibition at 10 µM [1]: 77.2%

COc1ccc2cc([C@H](C)C(=O)O)ccc2c1 [PCM-0000233]
inhibition at 10 µM [1]: -13.1%
